Experimental data as given in patent publication US20050175692A1, “Pharmaceutical formulation comprising melatonin” (Neurim Pharmaceuticals (1991) ltd., priority 2002, published 2005).

Legend:
[1] = single evening tablet; melatonin sustained release 2 mg, zolpidem 10 mg
Protocol: Method. The pharmacokinetics of melatonin (2 mg sustained release formulation), zolpidem (10 mg) and their combination were assessed in 16 volunteers (12 males and 4 females).
Blood samples were withdrawn from the subjects at pre-selected intervals after the administration of the tablets.

volunteers [2] = test: Cognitive Drug Research tests (attention, episodic secondary memory, motor co-ordination); format: in vivo, human
Description: (§1) A battery of performance tests and driving skill tests were given to the patients at pre-selected intervals after the administration of the tablet. These included psychomotor tasks for reaction test, vigilance and co-ordination: ARCI 49, Grooved Pegboard, Rivermead story, picture presentation, simple reaction time, digit vigilance task, choice reaction time, delayed picture recognition, visual tracking, driving simulator: highway driving and wake-EEG.

volunteers [3] = test: ARCI 49 (MBG, LSD, PCAG, BG scales); format: in vivo, human
Description: as §1

volunteers [4] = test: Rivermead story (immediate and delayed recall); format: in vivo, human; details: compared to placebo and sustained release melatonin 2 mg
Description: as §1

volunteers [5] = test: Grooved Pegboard; format: in vivo, human; details: 1 and 4 hours post-dosing, compared to baseline, placebo and sustained release melatonin 2 mg
Description: as §1

volunteers [6] = test: Driving simulator: highway driving; format: in vivo, human; details: 2 hours post-dosing
Description: as §1

volunteers [7] = test: Wake EEG; format: in vivo, human
Description: as §1

volunteers [8] = test: Treatment-emergent adverse events in the psychomotor/driving study; set-up: species or system human; details: in vivo
Description: as §1

Compound: Cc1ccc(-c2nc3ccc(C)cn3c2CC(=O)N(C)C)cc1 [Zolpidem, N,N,6-trimethyl-2-p-toyl-imidazo[1,2,-a]pyridine-3-acetamide L-(+)-tartrate (2:1)]
- Time to maximum, zolpidem in serum, Mean (SD) [1]: 1.8 (1.2) h
- maximum concentration, zolpidem in serum, Mean (SD) [1]: 0.22 (0.11) mcg/ml
- Cognitive effects compared to placebo (volunteers [2]; dosed alone, melatonin SR 2 mg or zolpidem 10 mg): several acute impairments
- Time post-dosing by which acute impairments were resolved (volunteers [2]; zolpidem 10 mg alone vs placebo): ≤ 12.5 h
- Sedative effect (increase of the PCAG scale) vs placebo (volunteers [3]; first 4 hours post-dosing): strong significant sedative effect
- Time after administration at which PCAG sedative effect reached the maximum (volunteers [3]; in vivo): about 4 hour
- Memory efficiency, both recalls (immediate and delayed) (volunteers [4]): decreased
- Duration of task execution (ipsi and contra lateral) (volunteers [5]): significant increase
- Number of collisions (volunteers [6]): increased number of collisions
- Alpha activity in driving conditions vs sustained release melatonin alone (volunteers [7]; driving conditions, not different vs placebo): significantly increased
- Theta rhythm on frontal leads vs placebo (volunteers [7]; in vivo): increased
- Alpha activity in resting conditions vs placebo (volunteers [7]; resting conditions): decreases in alpha
- Incidence of somnolence compared with melatonin alone and placebo (volunteers [8]): clearly increased
